From patent US9506933B2, “Method of preparing antigen for acquiring anti-hydrophobic peptide antibody” (TOAGOSEI CO., LTD., priority 2011, dated 2016)
Ends that are not written are not given here.

Assays:
Format in all cases: physicochemical
[1] = Particle size of FCG24 and FLF23 in 1% Tween 20 suspensions (Countess / dynamic light scattering); conditions: 1% Tween 20 suspension; dynamic light scattering particle size analyser
[2] = Molecular weight distribution of SPAPP aggregates (centrifugation, spin filters, BCA assay)
Protocol: The molecular weight distribution of SPAPP aggregates in the suspension was measured in accordance with the following procedure.
(i) The suspension was centrifuged at 15,000 rpm for five minutes and divided into supernatant and precipitate. This centrifugation causes particles equal to or larger than about 1 μm to precipitate.
(ii) The supernatant was applied to a molecular weight 100,000 cutoff spin filter (Amicon Microcon YM-100) and caused to pass through the filter by centrifugation.
(iii) The flow-through solution of (ii) was applied to a molecular weight 10,000 cutoff spin filter and caused to pass through the filter by centrifugation.
On each stage of the process described above, the protein concentration of the solution was measured by the BCA protein assay (Thermo Fisher Scientific) using BSA as the standard.
The time from suspension of SPAPP in pure water to addition of various surfactants was changed to confirm that the molecular size distribution of aggregates varies depending on the time. For example, in the case of 1% Tween 20, the insoluble fraction (precipitate) was 5% when the surfactants were added immediately after suspension of SPAPP in pure water, 17% when added after 1.5 hours, and 48% when added after 3 hours.

[3] = Test of solubility of peptide SPAPP to various solvents (visual transparency)
Source text: (1) Powdered purified SPAPP was mixed with various solvents at various concentrations to examine solubility.
The term “soluble” used in the following description means a state in which solvent is visually transparent and “insoluble” means a state in which solvent is visually cloudy.

[4] = Isoelectric point of SPAPP
[5] = Molecular size distribution of SPAPP in other nonionic surfactant solutions; conditions: 1% PEG60 dodecyl ether, Triton X-100 or Nonidet P-40; surfactant added immediately or after 90 minutes
Protocol: It was examined whether SPAPP forms high-molecular-weight aggregates in other nonionic surfactant solutions. PEG60 dodecyl ether (Polypure), Triton X-100, and Nonidet P-40 were used as surfactants at 1% in each case. As was the case with the method of Example 2, each of the surfactants was used for preparing SPAPP suspension and, after the size fractionation using centrifugation and spin-type molecular weight cutoff filters, 10% SDS was added to and mixed with each of fractions to the final concentration of 1% to dissolve the aggregates. The peptide concentrations of the fractions were measured by the BCA assay and the molecular weight distribution of SPAPP aggregates were summarized as shown in FIGS. 6A and 6B. […] In the histograms, “Ppt” indicates peptides removed by centrifugation, i.e., precipitate, which is considered to have a size of 1 μm or larger and a molecular weight of several hundred kilodaltons or more. “>100 kDa” indicates 100 kDa or more and “<100 kDa” indicates 100 kDa or less.

With “FLFCWILMILVVLTFVVGANVEK (listed as Homo sapiens) [FLF23]” the particle size [1] was “particles with sizes larger than the signals of only the 1% Tween 20 solution were confirmed”.
For MLPGLALLLLAAWTARA-OH [SPAPP], the “insoluble fraction (precipitate)” value ([2]; 1% Tween 20 added after 1.5 hours in pure water) was 17%, the “insoluble fraction (precipitate)” value ([2]; 1% Tween 20 added after 3 hours in pure water) was 48% and the “insoluble fraction (precipitate)” value ([2]; 1% Tween 20 added immediately after suspension of SPAPP in pure water) was 5%. The Solubility ([3]; 0.1% trifluoroacetic acid (pH 2.0), SPAPP conc. 7.5 mg/ml) was “Soluble”, the Solubility ([3]; 1% Nonidet P40, SPAPP conc. 1~5 mg/ml) was “Soluble” and the Solubility ([3]; 1% PEG12, SPAPP conc. 1~5 mg/ml) was “Soluble”. The Solubility ([3]; 1% PEG24, SPAPP conc. 1~5 mg/ml) was “Soluble”, the Solubility ([3]; 1% PEG60 docesylether, SPAPP conc. 1~5 mg/ml) was “Soluble” and the Solubility ([3]; 1% SDS (anionic surfactant), SPAPP conc. 1~5 mg/ml) was “Soluble”. The Solubility ([3]; 1% TritonX-100, SPAPP conc. 1~5 mg/ml) was “Soluble”, the Solubility ([3]; 1% Tween20, SPAPP conc. 1~5 mg/ml) was “Soluble” and the Solubility ([3]; 1% Tween80, SPAPP conc. 1~5 mg/ml) was “Soluble”. The Solubility ([3]; 1% cholesterol-PEG (NOF CORPORATION NO. CS050), SPAPP conc. 1~5 mg/ml) was “Soluble”, the Solubility ([3]; 1% formic acid (pH 3.0), SPAPP conc. 0.5 mg/ml) was “Soluble” and the Solubility ([3]; 100% DMF, SPAPP conc. 20 mg/ml) was “Soluble”. For the same substance, the Solubility ([3]; 100% DMS0, SPAPP conc. 50 mg/ml) was “Soluble”, the Solubility ([3]; 100% methanol, SPAPP conc. 0.5 mg/ml) was “Soluble” and the Solubility ([3]; Phosphate buffer (PBS) (pH 7)) was “Insoluble”. For the same substance, the Solubility ([3]; Pure water, SPAPP conc. 0.1 mg/ml) was “Insoluble”, the Solubility ([3]; neutral aqueous solutions) was “completely insoluble” and the Solubility ([3]; neutral aqueous solutions containing polar and nonionic surfactants) was “soluble”. The Solubility ([3]; polar organic solvents) was “soluble”, the Solubility ([3]; strongly acidic aqueous solutions) was “soluble” and the isoelectric point [4] was 10.9. For the same substance, the “formation of high-molecular-weight aggregates” value [5] was “high-molecular-weight aggregates are formed with any of the surfactants”.
